Columns and labels:
in vitro [1] = settings: human, Caco-2
in vitro [2] = settings: mouse, liver microsomes

In the case of `Cc1[nH]nc(-c2ccncc2)c1-c1ccc(-c2cccc(S(N)(=O)=O)c2)c(C2CC2)c1`, the Papp A→B (in vitro [1]) is reported as 88 nm/s and the half-life (in vitro [2]) is reported as 30 min.
